# Data published in patent US20060223768A1, “Regulation of gene expression” (priority 2003, published 2006).
# Columns and labels:
# HCT116 p53+/+ cells = assay: Apoptosis (annexin V FACS, DNA laddering, phase contrast) in HCT116 p53+/+ cells; type: cell-based, human
# HCT116 p53−/− cells = assay: Apoptosis (annexin V FACS, DNA laddering, phase contrast) in HCT116 p53−/− cells; type: cell-based, human; conditions: sulindac sulphide 120 μM, 24 and 48 hr
# Method: HCT116 clones were cultured in DMEM with 10% FCS. All the cell clones were cultured with penicillin 100 units ml^−1 and streptomycin 100 μg ml^−1 at 37° C. in 5% CO2 in air. Other human colorectal cancer cells lines, also defective for DNA mismatch repair (see Branch et al., 1995), were:- LoVo and RKO (p53 wild type); DLD1, LS174T, SW48 and HT29 (all p53 mutant). For transfection the cells were trypsinised and sub-cultured into 6 well plates (10 cm^2) without antibiotics, 1.5×10^5 cells per well. Selected 21-nucleotide RNAs were synthesised and BPLC purified (MWG; Germany) and annealed into siRNA duplexes according to the instructions supplied. 24 h after sub-culture the cells were transfected with siRNA formulated into liposomes (Oligofectamine, Life Technologies) according to the manufacturer's instructions. […] The final volume of culture medium was 1.5 ml per well. Cells were harvested for analysis at various times thereafter as indicated in the results. Each experiment with HCT116 cells was carried out four or more times. Transfection efficiencies were established by transfecting with liposomes containing FITC-dextran (Jiang and Milner, 2002). […]
# Cell growth curves were determined by cell counting. […] The fixed cells were pelleted, washed in PBS and resuspended in PBS containing 0.1 μg/ml propidium iodide with 200 U/ml RNase A and analysed by FACS. […]
Structure (SMILES),"apoptosis induced by treatment with sulindac (HCT116 p53+/+ cells; p53+/+ cells, sulindac sulphide 120 μM, 24 and 48 hr)",apoptosis induced by treatment with sulindac (HCT116 p53−/− cells),"apoptosis by agents that activate p53 (HCT116 p53+/+ cells; HCT116 cells, Zhang et al., 2000 and results not shown)"
"CC1=C(CC(=O)O)c2cc(F)ccc2/C1=C\c1ccc([S+](C)[O-])cc1 (stereo not drawn) [Sulindac, sulindac]",induced apoptosis,induced apoptosis,
"O=c1[nH]cc(F)c(=O)[nH]1 [5′ FU, 5-fluorouracil]",,,induced
